Measured values as given in US9127044B2, “Cyclic depsipeptides” (NOVARTIS AG, priority 2007, dated 2015).
Like-named read-outs stand apart in the source and are kept apart here.

Tests used:
[1] = biological target: T1, Human neutrophil elastase (Homo sapiens, UniProt P08246); assay: HNE inhibitory activity in vitro (fluorescence-quenched substrate); type: biochemical
T1 construct: purchased Elastin Products Company, Inc. (EPC, Owensville, USA) SE563
T1 sequence (P08246 30-267): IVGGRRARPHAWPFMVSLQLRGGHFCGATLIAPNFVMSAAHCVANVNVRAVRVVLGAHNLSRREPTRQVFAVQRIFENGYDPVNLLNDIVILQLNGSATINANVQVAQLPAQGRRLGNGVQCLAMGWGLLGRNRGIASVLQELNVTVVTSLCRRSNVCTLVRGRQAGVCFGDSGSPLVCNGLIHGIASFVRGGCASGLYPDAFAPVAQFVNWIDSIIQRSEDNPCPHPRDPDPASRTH
Description: Human neutrophil elastase (cat. no. SE563) is purchased from Elastin Products Company, Inc. (EPC, Owensville, USA). The dry powder (purity >95% stated by the supplier) was dissolved in 20 mM sodium acetate buffer, pH 5.0, 50% (v/v) glycerol, and frozen at −80° C. in aliquots.
The fluorescence-quenched substrate (DABCYL-Ser-Glu-Val^Asn-Leu-Asp-Ala-Glu-Phe-EDANS, where ^ indicates the scissile bond, identified by MS analysis) was purchased from Bachem AG (Bubendorf, Switzerland), and kept as a 5 mM stock solution in DMSO at −20° C. All other chemicals were of analytical grade.
Enzymatic reactions were conducted in 100 mM Tris/HCl buffer at pH 7.5, containing 500 mM NaCl, and 0.05% (w/v) CHAPS.
All protein and peptide containing solutions are handled in siliconized tubes (Life Systems Design, Merenschwand, Switzerland).
(§1) The compound solutions as well as the enzyme and the substrate solutions are transferred to the 384-well plates (black Cliniplate; cat. no. 95040020 Labsystems Oy, Finland) by means of a CyBi-Well 96-channel pipettor (CyBio AG, Jena, Germany).
(§2) For fluorescence intensity (FI) measurements an Ultra Evolution reader (TECAN, Maennedorf, Switzerland) is used. The instrument is equipped with a combination of a 350 nm (20 nm bandwidth) and a 500 nm (25 nm bandwidth) bandpass filter for fluorescence excitation and emission acquisition, respectively. To increase the signal:background ratio, an appropriate dichroic mirror is employed. The optical filters and the dichroic mirror are purchased from TECAN. The fluorophores in each well are excited by three flashes per measurement.

[2] = biological target: human kallikrein 7 (Homo sapiens, UniProt P49862); assay: Kallikrein-7 inhibitory activity in vitro (fluorescence-quenched substrate); type: biochemical
Sequence of human kallikrein 7 (P49862 30-253): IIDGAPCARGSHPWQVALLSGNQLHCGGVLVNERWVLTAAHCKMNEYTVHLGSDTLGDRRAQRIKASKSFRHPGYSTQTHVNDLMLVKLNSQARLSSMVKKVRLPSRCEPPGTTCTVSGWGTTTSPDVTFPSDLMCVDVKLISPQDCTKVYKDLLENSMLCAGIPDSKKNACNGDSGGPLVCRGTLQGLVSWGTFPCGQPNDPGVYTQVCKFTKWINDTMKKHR
Description: (§3) IC50 for human kallikrein can be measured using the fluorescence-quenched substrate Ac-Glu-Asp(EDANS)-Lys-Pro-Ale-Leu-Phe^Arg-Leu-Gly-Lys(DABCYL)-Glu-NH2 (where ^ indicates the scissile bond, identified by MS analysis) which can be purchased from Biosyntan (Berlin, Germany). Enzymatic reactions are conducted in 50 mM sodium citrate buffer at pH 5.6 containing 150 mM NaCl and 0.05% (w/v) CHAPS. For the determination of IC50 values the assay is performed at room temperature in 384-well plates. All final assay volumes are 30 μl. Test compounds are dissolved in 90% (v/v) DMSO/water and diluted in water (containing 0.05% (w/v) CHAPS) to 3-times the desired assay concentration. The 11 final compound concentrations are: 0.3 nM, 1 nM, 3 nM, 10 nM, 30 nM, 100 nM, 300 nM, 1 μM, 3 μM, 10 μM and 30 μM. For each assay, 10 μl water/CHAPS (±test compound) are added per well, followed by 10 μl protease solution (diluted with 1.5× assay buffer). The protease concentration in final assay solution is 0.2 nM (according to the enzyme concentrations determined by the Bradford method). After 1 hour of incubation at room temperature, the reaction is started by addition of 10 μl substrate solution (substrate dissolved in 1.5× assay buffer, final concentration is 2 μM). […] The IC50 value is calculated from the plot of percentage of inhibition vs. inhibitor concentration using non-linear regression analysis software (XLfit, Vers. 4.0; ID Business Solution Ltd., Guildford, Surrey, UK).
The fluorescence-quenched substrate Ac-Glu-Asp(EDANS)-Lys-Pro-Ale-Leu-Phe^Arg-Leu-Gly-Lys(DABCYL)-Glu-NH2 (where ^ indicates the scissile bond, identified by MS analysis) is purchased from Biosyntan (Berlin, Germany) and kept as a 5 mM stock solution in DMSO at −20° C. All other chemicals are of analytical grade.
Enzymatic reactions are conducted in 50 mM sodium citrate buffer at pH 5.6 containing 150 mM NaCl and 0.05% (w/v) CHAPS.
as §1, with “All protein and peptide containing solutions are handled in siliconized tubes (Life Systems Design, Merenschwand, Switzerland). The” for “The”
as §2
as §3, with “For” for “IC50 for human kallikrein can be measured using the fluorescence-quenched substrate Ac-Glu-Asp(EDANS)-Lys-Pro-Ale-Leu-Phe^Arg-Leu-Gly-Lys(DABCYL)-Glu-NH2 (where ^ indicates the scissile bond, identified by MS analysis) which can be purchased from Biosyntan (Berlin, Germany). Enzymatic reactions are conducted in 50 mM sodium citrate buffer at pH 5.6 containing 150 mM NaCl and 0.05% (w/v) CHAPS. For”, “volumes were” for “volumes are”, “concentration was” for “concentration is”

[3] = Table 11, read-out: human neutrophile elastase IC 50
[4] = Table 11, read-out: hKallikrein7 IC 50

SMILES: CCC(C)C1NC(=O)C(Cc2ccc(O)cc2)N(C)C(=O)C(C(C)CC)N2CCCC(NC(=O)C(CC(C)C)NC(=O)C(NC(=O)C(CCC(N)=O)NC(=O)C(C)C)C(C)OC1=O)C2=O (stereo not drawn) [example 4]
- IC50 [1, 3]: 55 nM
- IC50 [2, 4]: 6 nM

SMILES: CCCOC1CCC2NC(=O)C(CC(C)C)NC(=O)C(NC(=O)C(CCC(N)=O)NC(=O)C(C)C)C(C)OC(=O)C(C(C)CC)NC(=O)C(Cc3ccc(O)cc3)N(C)C(=O)C(C(C)CC)N1C2=O (stereo not drawn) [example 5]
- IC50 [1]: 5 nM
- IC50 ([2]; IC50 for human kallikrein 7): 9 nM
- IC50 ([2]; hKallikrein7 IC 50, Table 11): 8 nM

SMILES: CCCCCCCCOC1CCC2NC(=O)C(CC(C)C)NC(=O)C(NC(=O)C(CCC(N)=O)NC(=O)C(C)C)C(C)OC(=O)C(C(C)CC)NC(=O)C(Cc3ccc(O)cc3)N(C)C(=O)C(C(C)CC)N1C2=O (stereo not drawn) [example 6]
- IC50 [1]: 55 nM
- IC50 ([2]; hKallikrein7 IC 50, Table 11): 95 nM

SMILES: CCC(C)C1NC(=O)C(Cc2ccc(O)cc2)N(C)C(=O)C(C(C)CC)N2C(=O)C(CCC2OCC(F)(F)F)NC(=O)C(CC(C)C)NC(=O)C(NC(=O)C(CCC(N)=O)NC(=O)C(C)C)C(C)OC1=O (stereo not drawn) [example 7]
- IC50 [1]: 6 nM
- IC50 ([2]; hKallikrein7 IC 50, Table 11): 50 nM

SMILES: CCCCOC1CCC2NC(=O)C(CC(C)C)NC(=O)C(NC(=O)C(CCC(N)=O)NC(=O)C(C)C)C(C)OC(=O)C(C(C)CC)NC(=O)C(Cc3ccc(O)cc3)N(C)C(=O)C(C(C)CC)N1C2=O (stereo not drawn) [example 11]
- IC50 [1]: 12 nM
- IC50 ([2]; hKallikrein7 IC 50, Table 11): 6 nM

SMILES: CCC(C)C1NC(=O)C(Cc2ccc(O)cc2)N(C)C(=O)C(C(C)CC)N2C(=O)C(CCC2OCC(C)C)NC(=O)C(CC(C)C)NC(=O)C(NC(=O)C(CCC(N)=O)NC(=O)C(C)C)C(C)OC1=O (stereo not drawn) [example 12]
- IC50 [1]: 6 nM
- IC50 ([2]; hKallikrein7 IC 50, Table 11): 8.5 nM

SMILES: CCC(C)C1NC(=O)C(Cc2ccc(O)cc2)N(C)C(=O)C(C(C)CC)N2C(=O)C(CCC2OCCOC)NC(=O)C(CC(C)C)NC(=O)C(NC(=O)C(CCC(N)=O)NC(=O)C(C)C)C(C)OC1=O (stereo not drawn) [example 13]
- IC50 [1]: 4 nM
- IC50 ([2]; hKallikrein7 IC 50, Table 11): 6 nM

SMILES: CCC(C)C1NC(=O)C(Cc2ccc(O)cc2)N(C)C(=O)C(C(C)CC)N2C(=O)C(CCC2OCCO)NC(=O)C(CC(C)C)NC(=O)C(NC(=O)C(CCC(N)=O)NC(=O)C(C)C)C(C)OC1=O (stereo not drawn) [example 14]
- IC50 [1]: 5 nM
- IC50 ([2]; hKallikrein7 IC 50, Table 11): 10 nM

SMILES: CCC(C)C1NC(=O)C(Cc2ccc(O)cc2)N(C)C(=O)C(C(C)CC)N2C(=O)C(CCC2OCCOCCO)NC(=O)C(CC(C)C)NC(=O)C(NC(=O)C(CCC(N)=O)NC(=O)C(C)C)C(C)OC1=O (stereo not drawn) [example 15]
- IC50 [1]: 5 nM
- IC50 ([2]; hKallikrein7 IC 50, Table 11): 15 nM

SMILES: CCC(C)C1NC(=O)C(Cc2ccc(O)cc2)N(C)C(=O)C(C(C)CC)N2C(=O)C(CCC2OCCOCCOC)NC(=O)C(CC(C)C)NC(=O)C(NC(=O)C(CCC(N)=O)NC(=O)C(C)C)C(C)OC1=O (stereo not drawn) [example 16]
- IC50 [1]: 5 nM
- IC50 ([2]; hKallikrein7 IC 50, Table 11): 15 nM

SMILES: CCC(C)C1NC(=O)C(Cc2ccc(O)cc2)N(C)C(=O)C(C(C)CC)N2C(=O)C(CCC2OC)NC(=O)C(CC(C)C)NC(=O)C(NC(=O)C(CCC(N)=O)NC(=O)C(C)C)C(C)OC1=O (stereo not drawn) [example 17]
- IC50 [1]: 7.5 nM
- IC50 ([2]; hKallikrein7 IC 50, Table 11): 3 nM

SMILES: C#CCOC1CCC2NC(=O)C(CC(C)C)NC(=O)C(NC(=O)C(CCC(N)=O)NC(=O)C(C)C)C(C)OC(=O)C(C(C)CC)NC(=O)C(Cc3ccc(O)cc3)N(C)C(=O)C(C(C)CC)N1C2=O (stereo not drawn) [example 18]
- IC50 [1]: 2.5 nM
- IC50 ([2]; hKallikrein7 IC 50, Table 11): 5 nM

SMILES: CCC(C)C1NC(=O)C(Cc2ccc(O)cc2)N(C)C(=O)C(C(C)CC)N2C(=O)C(CCC2OC)NC(=O)C(CC(C)C)NC(=O)C(NC(=O)C(CCC(=O)OC)NC(=O)C(C)C)C(C)OC1=O (stereo not drawn) [example 20]
- IC50 [1]: 8 nM
- IC50 ([2]; hKallikrein7 IC 50, Table 11): 1.5 nM

SMILES: CCC(C)C1NC(=O)C(Cc2ccc(O)cc2)N(C)C(=O)C(C(C)CC)N2C(=O)C(CCC2O)NC(=O)C(CC(C)C)NC(=O)C(NC(=O)C(CCC#N)NC(=O)C(C)C)C(C)OC1=O (stereo not drawn) [example 21]
- IC50 [1, 3]: 9 nM
- IC50 [2, 4]: 2.5 nM

SMILES: CCC(C)C1NC(=O)C(Cc2ccc(O)cc2)N(C)C(=O)C(C(C)CC)N2CCCC(NC(=O)C(CC(C)C)NC(=O)C(NC(=O)C(CCC#N)NC(=O)C(C)C)C(C)OC1=O)C2=O (stereo not drawn) [example 22]
- IC50 [1, 3]: 40 nM
- IC50 [2, 4]: 6 nM

SMILES: CCCOC1CCC2NC(=O)C(CC(C)C)NC(=O)C(NC(=O)C(CCC#N)NC(=O)C(C)C)C(C)OC(=O)C(C(C)CC)NC(=O)C(Cc3ccc(O)cc3)N(C)C(=O)C(C(C)CC)N1C2=O (stereo not drawn) [example 24]
- IC50 [1, 3]: 4 nM
- IC50 [2, 4]: 7 nM

SMILES: CCCCCCOC(=O)Oc1ccc(CC2C(=O)NC(C(C)CC)C(=O)OC(C)C(NC(=O)C(CCC(N)=O)NC(=O)C(C)C)C(=O)NC(CC(C)C)C(=O)NC3CCC(O)N(C3=O)C(C(C)CC)C(=O)N2C)cc1 (stereo not drawn) [example 26]
- IC50 [1, 3]: 4.5 nM
- IC50 [2, 4]: 0.85 nM

SMILES: CCC(C)[C@@H]1NC(=O)[C@H](Cc2ccc(OC(=O)OCC(C)C)cc2)N(C)C(=O)[C@H](C(C)CC)N2CCCC(NC(=O)[C@H](CC(C)C)NC(=O)[C@@H](NC(=O)[C@H](CCC(N)=O)NC(=O)C(C)C)[C@@H](C)OC1=O)C2=O (stereo partly drawn) [example 27]
- IC50 [1]: 20 nM
- IC50 ([2]; hKallikrein7 IC 50, Table 11): 3 nM

SMILES: CCC(C)C1NC(=O)C(Cc2ccc(OC(=O)OCCOC)cc2)N(C)C(=O)C(C(C)CC)N2CCCC(NC(=O)C(CC(C)C)NC(=O)C(NC(=O)C(CCC(N)=O)NC(=O)C(C)C)C(C)OC1=O)C2=O (stereo not drawn) [example 28]
- IC50 [1, 3]: 30 nM
- IC50 [2, 4]: 2.5 nM

SMILES: CCOC(=O)Oc1ccc(C[C@H]2C(=O)N[C@@H](C(C)CC)C(=O)O[C@H](C)[C@H](NC(=O)[C@H](CCC(N)=O)NC(=O)C(C)C)C(=O)N[C@@H](CC(C)C)C(=O)NC3CCCN(C3=O)[C@@H](C(C)CC)C(=O)N2C)cc1 (stereo partly drawn) [example 29]
- IC50 [1, 3]: 25 nM
- IC50 [2, 4]: 3 nM

SMILES: CCC(C)C1NC(=O)C(Cc2ccc(OC(=O)OC3CCC4(C)C(=CCC5C4CCC4(C)C(C(C)CCCC(C)C)CCC54)C3)cc2)N(C)C(=O)C(C(C)CC)N2CCCC(NC(=O)C(CC(C)C)NC(=O)C(NC(=O)C(CCC(N)=O)NC(=O)C(C)C)C(C)OC1=O)C2=O (stereo not drawn) [example 30]
- IC50 [1, 3]: 4550 nM
- IC50 [2, 4]: 1050 nM

SMILES: CCCCCCCCOC(=O)Oc1ccc(C[C@H]2C(=O)N[C@@H](C(C)CC)C(=O)O[C@H](C)[C@H](NC(=O)[C@H](CCC(N)=O)NC(=O)C(C)C)C(=O)N[C@@H](CC(C)C)C(=O)NC3CCCN(C3=O)[C@@H](C(C)CC)C(=O)N2C)cc1 (stereo partly drawn) [example 31]
- IC50 [1, 3]: 300 nM
- IC50 [2, 4]: 200 nM
